Molecules are shown by their SMILES. Where two headings read alike, the source gives them in different places.

The target of experiment [1] is T1, Cytosol Progesterone Receptor of the Estrogen-primed Immature Rabbit Uterus (Oryctolagus cuniculus, UniProt P06186).
T1 construct: cytosol progesterone receptor of the estrogen-primed immature rabbit uterus; tissue Dutchland Laboratories, Inc., Denver, Pa (animals); host or cells: uterus cytosol of estradiol-treated immature female New Zealand White rabbits
T1 sequence (P06186 1-930): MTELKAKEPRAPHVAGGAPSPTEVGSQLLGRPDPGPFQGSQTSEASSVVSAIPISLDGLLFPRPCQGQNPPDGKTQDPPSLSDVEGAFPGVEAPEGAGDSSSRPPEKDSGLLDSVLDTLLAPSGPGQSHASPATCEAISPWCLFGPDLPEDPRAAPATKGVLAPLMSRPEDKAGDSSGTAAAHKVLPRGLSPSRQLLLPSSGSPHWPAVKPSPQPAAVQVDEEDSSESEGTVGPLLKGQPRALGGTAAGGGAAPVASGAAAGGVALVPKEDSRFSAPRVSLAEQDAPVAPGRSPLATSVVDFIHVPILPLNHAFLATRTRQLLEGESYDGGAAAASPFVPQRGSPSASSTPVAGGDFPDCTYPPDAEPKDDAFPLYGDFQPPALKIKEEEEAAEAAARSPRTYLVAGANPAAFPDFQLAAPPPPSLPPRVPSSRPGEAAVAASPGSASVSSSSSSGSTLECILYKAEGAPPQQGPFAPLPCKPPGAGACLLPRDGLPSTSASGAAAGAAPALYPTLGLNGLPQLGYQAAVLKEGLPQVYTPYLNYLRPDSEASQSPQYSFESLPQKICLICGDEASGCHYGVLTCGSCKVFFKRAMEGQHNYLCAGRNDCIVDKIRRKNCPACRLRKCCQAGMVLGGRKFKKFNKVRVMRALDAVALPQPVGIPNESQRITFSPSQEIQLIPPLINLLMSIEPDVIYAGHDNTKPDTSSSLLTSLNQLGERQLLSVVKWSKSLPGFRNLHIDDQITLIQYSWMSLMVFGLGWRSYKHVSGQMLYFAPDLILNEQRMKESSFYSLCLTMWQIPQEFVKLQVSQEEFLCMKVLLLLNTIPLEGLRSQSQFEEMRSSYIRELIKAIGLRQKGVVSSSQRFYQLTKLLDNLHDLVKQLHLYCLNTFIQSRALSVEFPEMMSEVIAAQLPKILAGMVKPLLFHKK
Particulars: relative to progesterone = 100; literature; cited from earlier work.

For experiment [2], the system named is androgen target organs of castrate immature male rats. The experiment can be described thus: Anti-androgenic activity in the castrate immature rat assay. It is filed as in vivo. The note with it: for anti-androgenic activity, in words: with testosterone sc 400 μg/rat/day, doses up to 400 μg/rat/day (progestagen oral; progesterone sc). The method, then:
The oral anti-androgenic activity of 6-methyl-6-dehydro-17α-ethynylprogesterone was evaluated in the castrate immature male rat assay [Lerner et al., Proc. Soc. […] The assay is briefly described in the footnotes to Table 11.
*This assay employs castrate immature rats. For methods refer to Lerner,
L. J., A. Bianchi and A. Borman, Proc. Soc.
**Groups of rats (7/group) were given daily injections of 0.3 ml sesame
oil (control) or compound (in 0.3 ml sesame oil) for 7 days. Some groups
also concurrently received progestational compounds by the sc or oral
route of administration in order to evaluate antiandrogenic activity. One
day after the final doses, the animals were sacrificed and the androgen
target organs indicated were weighed.
***Statistically significant (p < 0.05) lower organ weights versus the
testosterone, sc, (400 μg/rat/day) group as determined by Analysis of
Variance coupled with Duncan's Multiple Range Test.

Another experiment has as its system cycling rats. The experiment can be described thus: Blockade of ovulation in rats. It is filed as in vivo, rat (Charles River CD). Particulars: for No. Rats Ovulated (of rats treated) / No. of Oviductal Eggs in Rats that Ovulated (X ± S.D.): single sc. From the text:
The treated rats were sacrificed on the morning of expected estrus and eggs, if present, were flushed from the oviducts and counted. | *This assay employs cycling Charles River CD rats. For methods refer to | Beattie, C. W. and A. Corbin, Endocrinology 97, 885, 1975. […] | diestrus. Rats were sacrificed 43 to 44 hr later on the morning of | expected estrus. Eggs, if present, were flushed from oviducts and counted | under a stereomicroscope.

The conditions of experiment [3]: general knowledge; cited from earlier work.
Experiment [4] relates to estrogen-primed immature rabbits. The note with it: cited from earlier work.
Experiment [5] deals with uterine endometrium of estrone-primed immature rabbits. As to the kind of experiment: Clauberg assay (progestational activity, McPhail). It is filed as in vivo, rabbit (New Zealand White). The note with it: for McPhail Index (0-4) (X ± S.D.): 0 none, 4 maximal.
Experiment [6] relates to endometrium of estrogen-primed ovariectomized or climacteric women. Particulars: cited from earlier work.
The target in experiment [7] is T1, Cytosol Progesterone Receptor of the Estrogen-primed Immature Rabbit Uterus. As to the kind of experiment: Relative binding affinity for progesterone receptor (competition with 3H-progesterone). On the set-up: species or system rabbit (New Zealand White). The note with it: 16-18 hour incubation, progesterone = 100. Here is the method:
RBA values recorded at 0° C. after short incubation times (e.g., 2 hr) mainly reflect differences in the association rate constants of the competing ligands, whereas those measured after long incubation times (e.g., 16 to 24 hr) and/or higher temperatures predominantly are influenced by differences in the dissociation rate constants of the competing ligands. RBA's determined after short incubation times primarily reflect the association of the competitor compared to the natural hormone. Conversely, RBA's measured after long incubation times reflect the dissociation rate of the competitor compared to the natural hormone.
The assay components are combined, allowed to equilibrate, and unbound radioactivity removed by charcoal adsorption.
Animal species. Immature female New Zealand White rabbits weighing 0.8 to 1.0 kg (Dutchland Laboratories, Inc., Denver, Pa).
Pretreatment. Subcutaneous treatment with 15 μg 17β-estradiol/0.6 ml sesame oil each morning (0830 to 0930 hr) for three days. Animals sacrificed 24 hr after final injection.
Tissue. Uterus; each uterus weighed about 1.0 g and two or three uteri were pooled for each assay.
Buffer. (A) 0.01M TES, pH 7.4, 1 mM EDTA, 0.012M thioglycerol and 30% glycerol for cytosol preparation and ^3 H-steroid, unlabeled hormone and compound solutions. (B) 0.01M TES, pH 7.4, 1 mM EDTA and 0.012M thioglycerol for charcoal solution.
Homogenization. Five or six 5-second bursts with 30 second cooling periods between bursts using Brinkman Polytron Pt. 10 at 3.5 rheostat setting.
Temperature. 0°-4° C. for all steps.
Centrifugation. 45,000 rpm for 1 hr, 50 Ti rotor, Beckman L8-80 ultracentrifuge.
Incubation. 16-18 hr at 4°-6° C.
Concentations. 1×10^-10 M to 1×10^-5 M (7 concentrations).
Method. Charcoal adsorption method used to remove unbound radioactivity. Five-tenths ml of dextran-coated charcoal (0.5% Norit A and 0.05% dextran T-70) added to all tubes except total radioactivity tubes (0.5 ml buffer [B] added), tubes vortexed 3-5 sec, allowed to sit for 10 minutes and centrifuged 10 minutes at 2000 rpm in Beckman TJ-6 centrifuge at 0°-4° C.
Data Interpretation. […] The relative binding affinity (RBA) of each compound was calculated by using the following equation. [formula] where

The mark [8] stands for this setting: sc 25 μg/rat daily + testosterone sc 400.
The mark [9] stands for this setting: sc 100 μg/rat daily + testosterone sc 400.
[10] abbreviates: sc 400 μg/rat daily + testosterone sc 400.
The mark [11] stands for this setting: oral, 100 μg/rabbit daily, listed as 6α-Methyl-17α-acetoxyprogesterone.
The mark [12] stands for this setting: oral 25 μg/rat daily + testosterone sc 400.
Where [13] appears, read: oral 100 μg/rat daily + testosterone sc 400.
Where [14] appears, read: oral 400 μg/rat daily + testosterone sc 400.

In the case of `CC(=O)[C@H]1CC[C@H]2[C@@H]3CCC4=CC(=O)CC[C@@H]4[C@H]3CC[C@]12C` [19-norprogesterone], in experiment [1], the “RBA (Kontula et al. 1975)” value was 258.
As to `CC(=O)[C@H]1CC[C@H]2[C@@H]3CCC4=CC(=O)CC[C@]4(C)[C@H]3CC[C@]12C` [Progesterone], the “Levator Ani weight (X ± S.D.)” value in experiment [2] (setting [8]) was found to be 54 ± 15 mg; in experiment [2] (setting [9]), 58 ± 15 mg; in experiment [2] (setting [10]), 59 ± 14 mg. The figures for the “Seminal Vesicles weight (X ± S.D.)” value in experiment [2] (setting [8]) and in experiment [2] (setting [10]) were 157 ± 19 mg and 162 ± 26 mg, respectively. The “Ventral Prostate weight (X ± S.D.)” value in experiment [2] (setting [8]) turned out to be 71 ± 28 mg; in experiment [2] (setting [9]), 80 ± 27 mg; in experiment [2] (setting [10]) it was 60 ± 26 mg. Also, the “anti-androgenic activity, in words” value in experiment [2] was “inactive”. In addition, the “ovulation, in words” value in the experiment on cycling rats (500 μg progesterone, 100, 250 or 500 μg 17α-ethynylprogesterone) is reported as “ovulation was blocked in most rats”; in the experiment with cycling rats (100 or 250 μg progesterone, 50 μg 17α-ethynylprogesterone) it was “ovulated in a normal fashion”. For the same compound, the “No. Rats Ovulated (of rats treated)” value with cycling rats (100 μg/rat) is listed as 5/5; in the experiment with cycling rats (250 μg/rat), 4/5; with cycling rats (500 μg/rat), 1/4. Further, the “No. of Oviductal Eggs in Rats that Ovulated (X ± S.D.)” value in the experiment with cycling rats (100 μg/rat) came out at 7.8 ± 3.8; in the experiment with cycling rats (250 μg/rat) it was 7.0 ± 3.8; with cycling rats (500 μg/rat) it was 9.0. Also, the “RBA (Kontula et al. 1975)” value in experiment [1] is recorded as 100. The “oral progestational activity, in words” value in experiment [3] is “only weakly active when taken orally”. Further, the figures for the “Threshold or effective dose, Clauberg Assay” value in experiment [4] (oral) and in experiment [4] (s.c. (i.m.)) were 10.0 mg/animal and 0.5 mg/animal, respectively. The “Uterine Weight (X ± S.D.)” value stood at 1.09 ± 0.09 g in experiment [5] (sc, 50 μg/rabbit daily) and 1.64 ± 0.23 g in experiment [5] (sc, 100 μg/rabbit daily). Further, the “Threshold or effective dose, Kaufman Assay” value in experiment [6] (i.m.) is on record as 200 mg/cycle.
Turning to `CC(=O)O[C@]1(C(C)=O)CC[C@H]2[C@@H]3C[C@H](C)C4=CC(=O)CC[C@]4(C)[C@H]3CC[C@@]21C` [Medroxyprogesterone Acetate, 6α-Methyl-17α-acetoxyprogesterone, reference compound], the “oral progestational activity, in words” value in experiment [3] is listed as “potent orally active progestational compounds”. Moreover, the “Threshold or effective dose, Clauberg Assay” value in experiment [4] (oral) and in experiment [4] (s.c. (i.m.)) was 0.01-0.03 mg/animal throughout. The RBA in experiment [7] (Assay 4) came out at 57%; in experiment [7] (Assay 5), 133%; in experiment [7] (Assay 6) it was 143%. The “Uterine Weight (X ± S.D.)” value amounted to 1.08 ± 0.01 g in experiment [5] (oral, 5 μg/rabbit daily); 1.35 ± 0.34 g in experiment [5] (oral, 10 μg/rabbit daily); 1.12 ± 0.19 g in experiment [5] (oral, 25 μg/rabbit daily); 2.82 ± 0.92 g in experiment [5] (oral, 50 μg/rabbit daily); 2.65 ± 0.35 g in experiment [5] (oral, 100 μg/rabbit daily); 2.11 ± 1.28 g in experiment [5] (setting [11]). Further, the “Uterine Weight (X ± S.D.)” value in experiment [5] (oral, 200 μg/rabbit daily) is 3.30 ± 0.41 g; in experiment [5] (oral, 400 μg/rabbit daily), 3.73 ± 0.61 g. In addition, the “McPhail Index (0-4) (X ± S.D.)” value is on record as 0.29 ± 0.06 in experiment [5] (oral, 5 μg/rabbit daily); 0.71 ± 0.06 in experiment [5] (oral, 10 μg/rabbit daily); 0.25 ± 0.10 in experiment [5] (oral, 25 μg/rabbit daily); 3.00 ± 0.83 in experiment [5] (oral, 50 μg/rabbit daily); 3.90 ± 0.13 in experiment [5] (oral, 100 μg/rabbit daily); 2.66 ± 1.10 in experiment [5] (setting [11]). Besides, the “McPhail Index (0-4) (X ± S.D.)” value was found to be 4.00 ± 0.00 in experiment [5] (oral, 200 μg/rabbit daily) and 4.00 ± 0.00 in experiment [5] (oral, 400 μg/rabbit daily). For the same compound, the “Threshold or effective dose, Kaufman Assay” value in experiment [6] (oral) is 40-70 mg/cycle.
Turning to `CC(=O)O[C@]1(C(C)=O)CC[C@H]2[C@@H]3C=C(C)C4=CC(=O)CC[C@]4(C)[C@H]3CC[C@@]21C` [Megestrol Acetate, 6-Methyl-6-dehydro-17α-acetoxyprogesterone], the “Levator Ani weight (X ± S.D.)” value in experiment [2] (setting [12]) was 50 ± 8 mg; in experiment [2] (setting [13]), 55 ± 12 mg; in experiment [2] (setting [14]) it was 65 ± 12 mg. In addition, the “Seminal Vesicles weight (X ± S.D.)” value in experiment [2] (setting [12]) was determined as 125 ± 23 mg; in experiment [2] (setting [13]), 128 ± 36 mg; in experiment [2] (setting [14]) it was 120 ± 21 mg. For the same compound, the “Ventral Prostate weight (X ± S.D.)” value in experiment [2] (setting [12]) was determined as 42 ± 20 mg; in experiment [2] (setting [13]) it was 54 ± 13 mg; in experiment [2] (setting [14]), 48 ± 15 mg. The “anti-androgenic activity, in words” value in experiment [2] was “significant anti-androgenic activity”. Further, the “oral progestational activity, in words” value in experiment [3] is listed as “potent orally active progestational compounds”. Besides, the “Threshold or effective dose, Clauberg Assay” value is on record as 0.03 mg/animal in experiment [4] (oral) and 0.01-0.03 mg/animal in experiment [4] (s.c. (i.m.)). The “Threshold or effective dose, Kaufman Assay” value in experiment [6] (oral) is recorded as 35-50 mg/cycle.

These data come from patent US4512986A, “Progrestationally active steroids” (priority 1983, dated 1985).
